The EC50 is the concentration giving half of the maximal effect. Lower therefore signals higher potency in that assay.

Experiment [1] addresses GABA-A receptor; anion channel (Homo sapiens) (UniProt P14867+P47870+P18507+P28472+P48169+Q99928+Q9UN88+P34903+O00591+O14764+Q8N1C3+P18505+P78334+P47869+P31644+Q16445). Kind of experiment: Inhibition of mammalian Gamma-aminobutyric acid A (GABA-A) receptor (inactive). It counts as protein-complex assay.
For experiment [2], the target named is T1, GABA-C receptor (Homo sapiens) (UniProt P28476+A8MPY1+P24046). Put plainly: Inhibition of mammalian Gamma-aminobutyric acid type C (GABA-C) receptor, potent antagonist. It counts as functional.
T1 sequence (A8MPY1 whole entry, looked up): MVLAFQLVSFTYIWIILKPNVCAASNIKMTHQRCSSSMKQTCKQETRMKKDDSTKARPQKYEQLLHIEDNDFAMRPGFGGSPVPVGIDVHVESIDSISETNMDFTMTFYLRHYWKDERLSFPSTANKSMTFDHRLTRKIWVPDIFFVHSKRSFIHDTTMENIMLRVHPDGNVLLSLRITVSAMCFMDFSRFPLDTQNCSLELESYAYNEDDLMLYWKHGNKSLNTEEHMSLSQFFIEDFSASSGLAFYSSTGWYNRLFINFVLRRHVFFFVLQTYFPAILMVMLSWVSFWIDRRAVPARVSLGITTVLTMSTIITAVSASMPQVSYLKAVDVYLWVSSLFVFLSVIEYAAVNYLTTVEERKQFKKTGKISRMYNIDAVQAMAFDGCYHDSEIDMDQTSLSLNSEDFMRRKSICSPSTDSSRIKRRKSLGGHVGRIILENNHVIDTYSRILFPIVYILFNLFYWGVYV
T1 sequence (P24046 whole entry, looked up): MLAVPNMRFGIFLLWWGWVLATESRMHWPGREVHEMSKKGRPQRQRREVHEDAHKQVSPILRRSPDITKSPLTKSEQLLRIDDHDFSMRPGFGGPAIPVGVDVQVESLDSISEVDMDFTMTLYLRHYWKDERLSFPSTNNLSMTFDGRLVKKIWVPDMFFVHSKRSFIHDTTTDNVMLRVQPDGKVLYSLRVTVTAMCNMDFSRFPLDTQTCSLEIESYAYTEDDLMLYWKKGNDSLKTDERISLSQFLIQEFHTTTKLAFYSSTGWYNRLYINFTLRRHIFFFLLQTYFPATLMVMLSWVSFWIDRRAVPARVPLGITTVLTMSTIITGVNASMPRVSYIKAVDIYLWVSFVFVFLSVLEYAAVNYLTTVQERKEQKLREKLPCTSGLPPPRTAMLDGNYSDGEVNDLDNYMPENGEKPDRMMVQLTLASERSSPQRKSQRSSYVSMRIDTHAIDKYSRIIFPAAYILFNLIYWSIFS
T1 sequence (P28476 whole entry, looked up): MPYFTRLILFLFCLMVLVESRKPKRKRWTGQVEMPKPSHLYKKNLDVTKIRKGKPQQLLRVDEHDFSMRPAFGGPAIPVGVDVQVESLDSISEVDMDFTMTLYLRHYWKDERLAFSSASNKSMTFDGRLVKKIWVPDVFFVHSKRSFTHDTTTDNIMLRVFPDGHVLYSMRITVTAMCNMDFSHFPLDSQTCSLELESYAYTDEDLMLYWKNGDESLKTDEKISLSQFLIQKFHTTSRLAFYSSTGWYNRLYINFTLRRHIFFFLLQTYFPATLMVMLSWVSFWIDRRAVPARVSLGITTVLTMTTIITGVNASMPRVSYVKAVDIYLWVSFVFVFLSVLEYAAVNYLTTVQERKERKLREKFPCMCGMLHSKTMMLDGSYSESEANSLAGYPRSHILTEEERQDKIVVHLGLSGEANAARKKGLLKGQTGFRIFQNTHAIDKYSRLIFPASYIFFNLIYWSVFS
The nature of experiment [3]: Inhibition of rat brain Gamma-aminobutyric acid A (GABA-A) receptor expressed in oocytes, weak antagonist. The settings on record: Oocyte. It counts as functional.
The target of the next experiment is GABA B receptor (Rattus norvegicus, UniProt O88871+Q9Z0U4). Put plainly: Inhibition of rat hippocampal Gamma-aminobutyric acid type B receptor (weak agonist). It counts as functional, tissue-based, Hippocampus.
Sequence of GABA B receptor (Q9Z0U4 whole entry): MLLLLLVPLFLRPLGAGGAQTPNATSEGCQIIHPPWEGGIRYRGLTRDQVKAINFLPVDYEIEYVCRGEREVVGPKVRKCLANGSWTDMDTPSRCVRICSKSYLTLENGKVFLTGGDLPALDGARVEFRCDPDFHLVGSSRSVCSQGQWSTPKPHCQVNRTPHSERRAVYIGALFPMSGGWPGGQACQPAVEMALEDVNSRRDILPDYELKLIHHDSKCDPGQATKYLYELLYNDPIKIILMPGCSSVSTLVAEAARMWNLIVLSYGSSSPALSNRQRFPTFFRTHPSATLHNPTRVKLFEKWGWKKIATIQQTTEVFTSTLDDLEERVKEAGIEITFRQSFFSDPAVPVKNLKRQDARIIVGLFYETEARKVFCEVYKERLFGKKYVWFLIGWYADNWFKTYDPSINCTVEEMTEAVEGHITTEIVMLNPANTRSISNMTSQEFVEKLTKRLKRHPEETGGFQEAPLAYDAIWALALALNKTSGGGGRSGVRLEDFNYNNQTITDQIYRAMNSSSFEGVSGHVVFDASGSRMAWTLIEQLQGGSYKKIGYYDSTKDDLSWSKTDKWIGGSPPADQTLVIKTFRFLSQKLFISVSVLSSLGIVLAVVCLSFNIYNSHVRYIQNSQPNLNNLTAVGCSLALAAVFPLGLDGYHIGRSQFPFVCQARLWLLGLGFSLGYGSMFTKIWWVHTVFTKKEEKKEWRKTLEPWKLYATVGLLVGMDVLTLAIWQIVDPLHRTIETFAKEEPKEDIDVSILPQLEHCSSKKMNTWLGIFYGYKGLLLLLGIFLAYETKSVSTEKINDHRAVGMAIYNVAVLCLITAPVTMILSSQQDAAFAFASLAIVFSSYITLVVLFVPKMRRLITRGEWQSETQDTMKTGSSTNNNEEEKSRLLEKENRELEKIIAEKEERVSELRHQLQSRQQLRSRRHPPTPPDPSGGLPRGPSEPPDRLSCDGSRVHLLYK
Sequence of GABA B receptor (O88871 whole entry): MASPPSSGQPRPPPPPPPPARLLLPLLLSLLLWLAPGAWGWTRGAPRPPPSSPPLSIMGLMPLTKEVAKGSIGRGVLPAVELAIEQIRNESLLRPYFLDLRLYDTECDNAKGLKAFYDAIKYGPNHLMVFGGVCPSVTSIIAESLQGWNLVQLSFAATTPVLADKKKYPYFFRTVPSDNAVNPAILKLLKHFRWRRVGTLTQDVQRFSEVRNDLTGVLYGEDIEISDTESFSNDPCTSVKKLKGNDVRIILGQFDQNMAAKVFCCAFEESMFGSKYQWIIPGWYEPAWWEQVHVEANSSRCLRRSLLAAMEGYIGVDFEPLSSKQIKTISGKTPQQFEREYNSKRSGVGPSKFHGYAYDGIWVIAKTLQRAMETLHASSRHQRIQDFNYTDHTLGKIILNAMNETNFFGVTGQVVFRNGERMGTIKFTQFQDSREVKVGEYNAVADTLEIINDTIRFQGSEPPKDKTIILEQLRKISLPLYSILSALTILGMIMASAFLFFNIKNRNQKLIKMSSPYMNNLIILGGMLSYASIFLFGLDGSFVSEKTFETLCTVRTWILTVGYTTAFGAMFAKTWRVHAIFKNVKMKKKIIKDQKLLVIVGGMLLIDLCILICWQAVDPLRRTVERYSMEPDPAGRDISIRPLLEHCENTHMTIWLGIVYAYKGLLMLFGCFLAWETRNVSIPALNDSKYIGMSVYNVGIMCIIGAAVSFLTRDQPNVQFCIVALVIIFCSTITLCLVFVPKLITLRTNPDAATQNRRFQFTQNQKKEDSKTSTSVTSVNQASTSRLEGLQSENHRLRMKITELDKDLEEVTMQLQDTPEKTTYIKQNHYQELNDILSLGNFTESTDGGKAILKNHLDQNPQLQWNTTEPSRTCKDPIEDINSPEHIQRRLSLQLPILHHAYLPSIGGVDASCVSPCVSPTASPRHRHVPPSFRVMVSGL
Experiment [4] concerns the target T1, GABA-C receptor (Homo sapiens). Put plainly: Inhibition of human Gamma-aminobutyric acid type C (GABA-C) receptor, potent antagonist. It counts as functional.
The target in experiment [5] is GABA-B receptor (Homo sapiens) (UniProt Q9UBS5+O75899). Kind of experiment: Inhibition of mammalian Gamma-aminobutyric acid type B receptor (Inactive). It counts as protein-complex assay.
The target in experiment [6] is GABA-A receptor; anion channel. Kind of experiment: Inhibition of mammalian Gamma-aminobutyric acid A (GABA-A) receptor, agonist. It counts as functional.
For experiment [7], the target named is T1, GABA-C receptor (Homo sapiens). Put plainly: Inhibition of mammalian Gamma-aminobutyric acid type C (GABA-C) receptor, partial agonist. It counts as functional.

Activity calls are given as the source filed them. No cut-off for these calls is given here.

As for `CP(=O)(O)CCCN`, in experiment [1], the result was inactive. This molecule also yielded a Kb in experiment [2] of 0.8 µM.
Turning to `CP(=O)(O)C1=CCNCC1`, the Kb in experiment [3] is 320 µM; in experiment [4], 2.1 µM. Moreover, the concentration for a half-maximal effect (EC50) at GABA B receptor stood at 500 µM.
As for `O=C(O)C1=CCNCC1` [ISOGUVACINE], in experiment [5], the result was inactive. For the same molecule, in experiment [6], the response was half-maximal at 310 µM (EC50). For the same molecule, the Kb in experiment [7] turned out to be 99 µM.

The values are drawn from ChEMBL document CHEMBL1150031, “The first selective antagonist for a GABAC receptor” (Bioorg Med Chem Lett, 1996).
